According to PMC6684226, “Neuropeptide B mediates female sexual receptivity in medaka fish, acting in a female-specific but reversible manner” (eLife, 2019):

Columns and labels:
Cckar expression = details: ref Xu et al., 2012, cited from earlier work
From the text: Another distinctive aspect of npba expression is the bidirectional reversibility of sexual dimorphism (both from female-typical to male-typical pattern and from male-typical to female-typical pattern). […] In mice, for example, the cholecystokinin receptor gene (Cckar) implicated in female sexual receptivity is expressed in the ventr ...

[1] = test system: ER expression in Vs/Vp and PMm/PMg; details: males treated with estrogen; ref Hiraki et al., 2012; cited from earlier work
From the text: Importantly, our results provide insight into the mechanisms underlying the reversal of sexually dimorphic npba expression. […] Considering these findings, it seems plausible that this estrogen-induced npba expression is not fully realized until sufficient ER expression is achieved.

[2] = test system: npba expression in Vs/Vp and PMm/PMg; details: estrogen replacement, ref Hiraki et al., 2014; cited from earlier work
From the text: We determined whether the sexual phenotype of npba expression can be reversed from the female to the male pattern, and vice versa, by altering the adult sex steroid milieu. […] Here, we first tested whether npba expression in these brain nuclei can be induced in males by castration and sex steroid supplementation.

[3] = test system: npba expression in Vs/Vp and PMm/PMg; parameters: method as in Kikuchi et al., 2019; details: adult males treated with estrogen; ref Kikuchi et al., 2019; cited from earlier work
[4] = test system: npbb expression in Vs/Vp and PMm/PMg/PPp; test: npbb expression in brain nuclei of gonad-intact medaka after immersion drug treatment (in situ hybridization); type: in vivo, medaka (Oryzias latipes); details: n = 5
From the text: (§1) DNA fragments of 645 bp, 647 bp, and 1520 bp corresponding to nucleotides 1–645 of the medaka npba cDNA (GenBank accession number NM_001308979), 1–647 of the medaka npbb EST clone of National BioResource Project (NBRP) Medaka (http://www.shigen.nig.ac.jp/medaka/) (clone ID: olova57o22), and 1699–3218 of the medaka npbwr2 cDNA (deposited in DDBJ/EMBL/GenBank with accession number LC375958), respectively, were PCR-amplified and subcloned into the pGEM-Teasy vector (Promega, Madison, WI). The resultant constructs were used to generate digoxigenin (DIG)-labeled cRNA probes for npba, npbb, and npbwr2 by using the DIG RNA Labeling Mix and T7 RNA polymerase (Roche Diagnostics). The procedure for in situ hybridization has been described previously ([Hiraki et al., 2012]). In brief, the brain, pituitary, and/or spinal cord were fixed in 4% paraformaldehyde (PFA), embedded in paraffin, and cut into 10 μm sections in the coronal plane. Hybridization signals were visualized by using alkaline phosphatase-conjugated anti-DIG antibody (Roche Diagnostics) and 5-bromo-4-chloro-3-indolyl phosphate/nitro blue tetrazolium (BCIP/NBT) substrate (Roche Diagnostics). Color development was allowed to proceed overnight or was stopped after 2–3 hr (for quantification of npba expression in Vs/Vp) or 15–30 min (for quantification of npba expression in PMm/PMg) to avoid saturation. All sections in each comparison were processed simultaneously under the same conditions.
(§2) To obtain quantitative data, the number of npba/npbb-expressing neurons in each brain nucleus or each brain/spinal cord region was counted manually. In some analyses, the resulting sections were photographed and converted to black and white binary images by thresholding using Adobe Photoshop (Adobe Systems, San Jose, CA), and the total area of npba/npbb expression was calculated by using ImageJ (http://rsbweb.nih.gov/ij/). The threshold was set manually by visual inspection of the images to successfully separate specific signals from background noise. Brain nuclei were identified by using medaka brain atlases ([Anken and Bourrat, 1998]; [Ishikawa et al., 1999]); http://www.shigen.nig.ac.jp/medaka/medaka_atlas/), supplemented with information from our Nissl-stained sections ([Kawabata et al., 2012]).
(§3) In another experiment, females with intact ovaries were treated with 100 ng/ml of KT or AI (Fadrozole; Sigma-Aldrich, St. Louis, MO) by immersion in water for 9 days. […] These fish were sampled on days 0 (untreated controls), 2, 5, and 9. The sex steroid concentration used was based on previously reported serum steroid levels in medaka ([Foran et al., 2002]; [Foran et al., 2004]; [Tilton et al., 2003]).

[5] = test system: npba expression in Vs/Vp and PMm/PMg; test: npba expression in brain nuclei of gonad-intact medaka after immersion drug treatment (in situ hybridization); type: in vivo, medaka (Oryzias latipes); details: ovary-intact adult females, n = 5
From the text: as §1, §2, §3

[6] = test system: npbb expression in Vs/Vp and PMm/PMg/PPp; test: npbb expression in brain nuclei of gonadectomized medaka after sex steroid supplementation (in situ hybridization); type: in vivo, medaka (Oryzias latipes); details: n = 5
From the text: DNA fragments of 645 bp, 647 bp, and 1520 bp corresponding to nucleotides 1–645 of the medaka npba cDNA (GenBank accession number NM_001308979), 1–647 of the medaka npbb EST clone of National BioResource Project (NBRP) Medaka (http://www.shigen.nig.ac.jp/medaka/) (clone ID: olova57o22), and 1699–3218 of the medaka npbwr2 cDNA (deposited in DDBJ/EMBL/GenBank with accession number LC375958), respectively, were PCR-amplified and subcloned into the pGEM-Teasy vector (Promega, Madison, WI). The resultant constructs were used to generate digoxigenin (DIG)-labeled cRNA probes for npba, npbb, and npbwr2 by using the DIG RNA Labeling Mix and T7 RNA polymerase (Roche Diagnostics). […] Color development was allowed to proceed overnight or was stopped after 2–3 hr (for quantification of npba expression in Vs/Vp) or 15–30 min (for quantification of npba expression in PMm/PMg) to avoid saturation. […]
To obtain quantitative data, the number of npba/npbb-expressing neurons in each brain nucleus or each brain/spinal cord region was counted manually. In some analyses, the resulting sections were photographed and converted to black and white binary images by thresholding using Adobe Photoshop (Adobe Systems, San Jose, CA), and the total area of npba/npbb expression was calculated by using ImageJ (http://rsbweb.nih.gov/ij/). […]

[7] = test system: npba expression in the whole brain; test: npba expression in whole brain of ovariectomized ΔERE mutant females treated with E2 (real-time PCR); type: in vivo, medaka (Oryzias latipes); details: OVX + 100 ng/ml E2, 6 days, n = 6 per group
[8] = test system: estradiol-17β (E2) in the brain; test: Brain levels of E2 in KT-treated females (LC-MS/MS); type: in vivo, medaka (Oryzias latipes); details: females treated with 100 ng/ml KT by immersion; within 2 days, low during remainder of treatment; n = 4 per sampling day; p<0.0001 on days 2, 5, and 9
Method: as §3
Dissected whole brains were frozen and stored at −80°C until analysis. Levels of E2 in the brains were analyzed by liquid chromatography coupled to tandem mass spectrometry (LC-MS/MS) at Aska Pharmamedical (Kanagawa, Japan).

Compound: estrogen
- Cckar expression in ventromedial nucleus of the hypothalamus, males (Cckar expression; adult males treated with estrogen): does not induce expression of Cckar
- Cckar expression in ventromedial nucleus of the hypothalamus, females (Cckar expression; ovariectomized adult females treated with estrogen): reinstated by treatment with estrogen
- ER expression in Vs/Vp and PMm/PMg of males [1]: induces ER expression
- npba expression in Vs/Vp and PMm/PMg of ovariectomized females [2]: restored by estrogen replacement
- emergence of Npba-expressing neurons in adult males [3]: emerged in adult males treated with estrogen

Compound: N#Cc1ccc(C2CCCc3cncn32)cc1 (stereo not drawn) [AI, Fadrozole]
- npbb expression in PMm/PMg/PPp (significant decrease) ([4]; ovary-intact adult females, 100 ng/ml AI by immersion, 9 days): not AI treatment
- number of npbb-expressing neurons in Vs/Vp ([4]; ovary-intact adult females, 100 ng/ml AI by immersion, p=0.0002 and <0.0001 on days 5 and 9): undetectable or nearly undetectable levels
- total area of npbb expression in Vs/Vp ([4]; ovary-intact adult females, 100 ng/ml AI by immersion, p=0.0013 and 0.0009 on days 5 and 9): undetectable or nearly undetectable levels
- number of npba-expressing neurons in Vs/Vp (compared with KT treatment) ([5]; 100 ng/ml AI by immersion, p<0.0001 on days 2, 5, and 9): essentially the same results
- total area of npba expression in Vs/Vp (compared with KT treatment) ([5]; 100 ng/ml AI by immersion, p=0.0063 and 0.0025 on days 5 and 9): essentially the same results
- total area of npba expression in PMm/PMg (compared with KT treatment) ([5]; 100 ng/ml AI by immersion, p=0.0108 on day 9): essentially the same results

Compound: C[C@]12CC[C@@H]3c4ccc(O)cc4CC[C@H]3[C@@H]1CC[C@@H]2O [E2, estradiol-17β]
- npbb-expressing neurons in Vs/Vp of castrated males ([6]; castrated adult males, 100 ng/ml E2, 6 days, p<0.0001): induced a few npbb-expressing neurons in Vs/Vp
- npbb-expressing neurons in Vs/Vp ([4]; testis-intact adult males, 100 ng/ml E2 by immersion, p=0.0369): a few npbb-expressing neurons were newly induced in Vs/Vp
- npba expression in the whole brain, mutant versus wild-type females ([7]; p=0.0023): not able to restore npba expression to the level present in wild-type females
- npba expression in the whole brain after ovariectomy and E2 treatment ([7]; ΔERE mutant females): restored by E2 treatment

Compound: C[C@]12CC(=O)[C@H]3[C@@H](CCC4=CC(=O)CC[C@@]43C)[C@@H]1CC[C@@H]2O [KT, 11-ketotestosterone]
- npbb expression in Vs/Vp and PMm/PMg/PPp after ovariectomy (restoration) ([6]; ovariectomized adult females, 100 ng/ml KT, 6 days): not by KT
- npbb expression in PMm/PMg/PPp ([4]; ovary-intact adult females, 100 ng/ml KT by immersion, number of neurons p=0.0038 on day 9, total area p=0.0021 and <0.0001 on days 5 and 9): significant decrease
- number of npbb-expressing neurons in Vs/Vp ([4]; ovary-intact adult females, 100 ng/ml KT by immersion, p<0.0001 on days 5 and 9): undetectable or nearly undetectable levels
- total area of npbb expression in Vs/Vp ([4]; ovary-intact adult females, 100 ng/ml KT by immersion, p=0.0235, <0.0001, <0.0001 on days 2, 5, and 9): undetectable or nearly undetectable levels
- brain E2 levels, percent of untreated controls [8]: less than 5%
- number of npba-expressing neurons in PMm/PMg ([5]; 100 ng/ml KT by immersion, 9 days): unchanged
- total area of npba expression in Vs/Vp ([5]; 100 ng/ml KT by immersion, 9 days, p=0.0002 on day 2, p<0.0001 on days 5 and 9): undetectable or nearly undetectable levels
- number of npba-expressing neurons in Vs/Vp ([5]; 100 ng/ml KT by immersion, days 0, 2, 5, 9, p<0.0001 on days 5 and 9 versus day 0): undetectable or nearly undetectable levels
- total area of npba expression in PMm/PMg ([5]; 100 ng/ml KT by immersion, p=0.0068 on day 9): significant decline
